For test [1], the target named is Protein arginine N-methyltransferase 7 (Homo sapiens, UniProt Q9NVM4). In words: Affinity Phenotypic Cellular interaction: (HSP70 monomethylation in C2C12 cells) EUB0000236b PRMT7. Type of test: functional, cell-based. On the set-up: mode of action Negative control for SGC3027, recommended concentration 1 uM.
The target in test [2] is T1, MAP kinase-activated protein kinase 5 (Homo sapiens, UniProt Q8IW41).
T1 sequence (Q8IW41 whole entry): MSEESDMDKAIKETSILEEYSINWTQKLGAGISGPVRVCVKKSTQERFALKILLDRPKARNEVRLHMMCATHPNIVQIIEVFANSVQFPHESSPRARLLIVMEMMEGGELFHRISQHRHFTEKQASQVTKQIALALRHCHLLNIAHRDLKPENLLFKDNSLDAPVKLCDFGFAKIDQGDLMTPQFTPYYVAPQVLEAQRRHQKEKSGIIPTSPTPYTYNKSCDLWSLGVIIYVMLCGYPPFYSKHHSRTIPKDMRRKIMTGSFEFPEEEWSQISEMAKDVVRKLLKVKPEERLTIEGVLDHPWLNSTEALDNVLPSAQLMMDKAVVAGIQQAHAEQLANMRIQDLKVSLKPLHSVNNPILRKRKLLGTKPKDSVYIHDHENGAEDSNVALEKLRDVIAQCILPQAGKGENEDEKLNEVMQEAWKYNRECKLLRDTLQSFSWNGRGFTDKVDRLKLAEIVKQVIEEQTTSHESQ
The test is classed as functional, cell-based, Monocyte.

Test [3] deals with T2, MAP kinase-activated protein kinase 2 (Homo sapiens, UniProt P49137). Type of test: functional, cell-based, Monocyte.
T2 sequence (P49137 whole entry): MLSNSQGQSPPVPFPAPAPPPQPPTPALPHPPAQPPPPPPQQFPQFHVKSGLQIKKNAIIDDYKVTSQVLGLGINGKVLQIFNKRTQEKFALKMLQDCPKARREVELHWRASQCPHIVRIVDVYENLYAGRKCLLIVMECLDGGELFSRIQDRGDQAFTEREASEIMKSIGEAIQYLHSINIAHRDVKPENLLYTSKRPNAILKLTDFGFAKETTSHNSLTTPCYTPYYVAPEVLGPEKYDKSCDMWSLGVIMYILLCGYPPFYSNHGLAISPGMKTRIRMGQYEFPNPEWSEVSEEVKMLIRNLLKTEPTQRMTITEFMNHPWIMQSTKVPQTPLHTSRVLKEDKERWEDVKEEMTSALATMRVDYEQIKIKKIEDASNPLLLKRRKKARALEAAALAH
Test [4] concerns the target T2, MAP kinase-activated protein kinase 2. Type of test: functional, cell-based, Monocyte. This is another data set of the same source.
Test [5] addresses T3, MAP kinase-activated protein kinase 3 (Homo sapiens, UniProt Q16644). The test is classed as functional, cell-based, Monocyte.
The target of test [6] is T1, MAP kinase-activated protein kinase 5. Type of test: functional, cell-based, Monocyte. The source holds these as a separate data set.
The target of test [7] is T3, MAP kinase-activated protein kinase 3. Type of test: functional, cell-based, Monocyte. This is another data set of the same source.
Test [8] deals with T1, MAP kinase-activated protein kinase 5. Type of test: functional, cell-based, Monocyte. This is another data set of the same source.
The target in test [9] is T3, MAP kinase-activated protein kinase 3. The test is classed as functional, cell-based, Monocyte. This is another data set of the same source.
For test [10], the target named is T2, MAP kinase-activated protein kinase 2. The test is classed as functional, cell-based, Monocyte. The source holds these as a separate data set.
For test [11] the target is unchanged. The test is classed as functional, cell-based, Monocyte. The source holds these as a separate data set.
For test [12], the target named is Protein arginine N-methyltransferase 1 (Homo sapiens, UniProt Q99873). In words: Affinity Phenotypic Cellular interaction: (Western Blot (inhibitor of H4R3 methylation in MCF-7 cells)) EUB0000261b PRMT1. The test is classed as functional, cell-based, MCF7. Also on record: mode of action Negative control for MS023, recommended concentration 1 uM. (In general: Immunoblotting shows a protein as a band on a membrane.)
Protein arginine N-methyltransferase 1, sequence (Q99873 whole entry): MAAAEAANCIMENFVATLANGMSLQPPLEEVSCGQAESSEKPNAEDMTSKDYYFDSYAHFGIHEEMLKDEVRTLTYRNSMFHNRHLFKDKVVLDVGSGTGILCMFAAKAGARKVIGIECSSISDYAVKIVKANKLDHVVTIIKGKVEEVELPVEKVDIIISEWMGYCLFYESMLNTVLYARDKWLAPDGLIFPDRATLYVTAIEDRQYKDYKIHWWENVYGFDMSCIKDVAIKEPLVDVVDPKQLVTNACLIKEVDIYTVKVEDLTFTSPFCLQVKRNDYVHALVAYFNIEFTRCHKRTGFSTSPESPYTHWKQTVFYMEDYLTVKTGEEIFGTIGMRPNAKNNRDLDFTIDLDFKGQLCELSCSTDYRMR

Test [13] has as its target Protein arginine N-methyltransferase 3 (Homo sapiens, UniProt O60678). The test can be described thus: Affinity Phenotypic Cellular interaction: (Western Blot (inhibitor of H4R3 methylation in MCF-7 cells)) EUB0000261b PRMT3. Also on record: mode of action Negative control for MS023, recommended concentration 1 uM. The test is classed as functional, cell-based, MCF7.
In test [14] the target is Protein arginine N-methyltransferase 8 (Homo sapiens, UniProt Q9NR22). In words: Affinity Phenotypic Cellular interaction: (Western Blot (inhibitor of H4R3 methylation in MCF-7 cells)) EUB0000261b PRMT8. The test is classed as functional, cell-based, MCF7. On the set-up: mode of action Negative control for MS023, recommended concentration 1 uM.
Protein arginine N-methyltransferase 8, sequence (Q9NR22 whole entry): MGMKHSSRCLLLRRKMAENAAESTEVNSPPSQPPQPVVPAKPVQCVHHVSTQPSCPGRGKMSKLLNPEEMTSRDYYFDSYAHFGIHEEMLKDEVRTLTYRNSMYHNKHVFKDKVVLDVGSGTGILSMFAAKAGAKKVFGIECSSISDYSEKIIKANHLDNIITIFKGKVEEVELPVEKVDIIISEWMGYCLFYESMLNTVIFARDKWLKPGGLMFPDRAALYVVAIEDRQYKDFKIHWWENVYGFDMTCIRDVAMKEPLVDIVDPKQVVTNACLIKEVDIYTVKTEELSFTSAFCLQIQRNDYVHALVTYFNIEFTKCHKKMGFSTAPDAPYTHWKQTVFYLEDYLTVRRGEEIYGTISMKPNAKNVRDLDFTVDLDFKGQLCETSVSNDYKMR
Test [15] deals with Tyrosine-protein kinase BTK (Homo sapiens) (UniProt Q06187). The settings on record: VCaP, Affinity Phenotypic Cellular Source Knowledge https://pubmed.ncbi.nlm.nih.gov/23594111/.
Tyrosine-protein kinase BTK (Homo sapiens), sequence (Q06187 whole entry): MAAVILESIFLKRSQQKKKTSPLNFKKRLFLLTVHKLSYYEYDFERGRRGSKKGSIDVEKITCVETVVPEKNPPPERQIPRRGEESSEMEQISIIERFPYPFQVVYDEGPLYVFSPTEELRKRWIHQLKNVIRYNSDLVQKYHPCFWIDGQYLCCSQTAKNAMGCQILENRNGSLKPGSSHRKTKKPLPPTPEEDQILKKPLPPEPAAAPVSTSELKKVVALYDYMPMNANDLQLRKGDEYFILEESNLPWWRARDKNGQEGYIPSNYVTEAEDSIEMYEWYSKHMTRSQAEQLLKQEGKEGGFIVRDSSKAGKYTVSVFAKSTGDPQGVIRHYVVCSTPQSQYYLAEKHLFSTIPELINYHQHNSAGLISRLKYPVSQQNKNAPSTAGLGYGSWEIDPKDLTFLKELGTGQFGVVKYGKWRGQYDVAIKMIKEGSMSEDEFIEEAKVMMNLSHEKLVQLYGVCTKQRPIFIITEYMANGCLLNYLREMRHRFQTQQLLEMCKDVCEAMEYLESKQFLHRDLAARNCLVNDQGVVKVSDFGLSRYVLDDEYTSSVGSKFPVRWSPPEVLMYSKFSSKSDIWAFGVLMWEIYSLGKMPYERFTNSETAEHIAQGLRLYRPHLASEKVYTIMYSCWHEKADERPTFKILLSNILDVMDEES
Test [16] shares this target. The settings on record: LNCaP C4-2, Affinity Phenotypic Cellular Source Knowledge https://pubmed.ncbi.nlm.nih.gov/23594111/.
Test [17] has as its target T4, Cytoplasmic tyrosine-protein kinase BMX (Homo sapiens) (UniProt P51813).
T4 sequence (whole entry): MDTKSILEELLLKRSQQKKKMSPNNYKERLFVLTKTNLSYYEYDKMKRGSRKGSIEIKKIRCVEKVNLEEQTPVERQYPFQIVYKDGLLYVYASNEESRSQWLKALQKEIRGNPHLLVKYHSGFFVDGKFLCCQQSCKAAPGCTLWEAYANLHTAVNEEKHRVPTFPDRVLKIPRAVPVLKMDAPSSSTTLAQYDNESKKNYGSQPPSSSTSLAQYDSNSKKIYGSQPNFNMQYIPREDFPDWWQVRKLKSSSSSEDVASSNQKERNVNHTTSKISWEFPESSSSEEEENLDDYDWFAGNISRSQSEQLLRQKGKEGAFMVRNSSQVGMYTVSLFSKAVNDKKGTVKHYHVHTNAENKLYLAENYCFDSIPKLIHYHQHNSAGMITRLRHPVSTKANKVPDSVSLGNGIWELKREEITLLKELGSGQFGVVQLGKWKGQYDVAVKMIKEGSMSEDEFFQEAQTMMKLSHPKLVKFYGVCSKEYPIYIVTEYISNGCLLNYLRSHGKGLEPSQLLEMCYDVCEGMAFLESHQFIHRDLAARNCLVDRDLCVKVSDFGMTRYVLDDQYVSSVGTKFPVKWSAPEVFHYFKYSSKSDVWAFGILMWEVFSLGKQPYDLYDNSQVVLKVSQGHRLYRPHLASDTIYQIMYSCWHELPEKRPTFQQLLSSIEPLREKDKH
The test can be described thus: Affinity Phenotypic Cellular interaction: (Antiproliferative activity assay (prostate cancer cell line, C4-2)) EUB0000045b BMX. Type of test: functional, cell-based. On the set-up: recommended concentration 1 uM. The following applies: LNCaP C4-2, Affinity Phenotypic Cellular Source Knowledge https://pubmed.ncbi.nlm.nih.gov/23594111/.

The target in test [18] is T4, Cytoplasmic tyrosine-protein kinase BMX (Homo sapiens). In words: Affinity Phenotypic Cellular interaction: (Antiproliferative activity assay (prostate cancer cell line, RV-1)) EUB0000045b BMX. The test is classed as functional, cell-based. Also on record: recommended concentration 1 uM. The following applies: CWR22R, Affinity Phenotypic Cellular Source Knowledge https://pubmed.ncbi.nlm.nih.gov/23594111/.

The target in test [19] is Tyrosine-protein kinase BTK (Homo sapiens) (UniProt Q06187). The settings on record: DU-145, Affinity Phenotypic Cellular Source Knowledge https://pubmed.ncbi.nlm.nih.gov/23594111/.
For test [20] the target is unchanged. The following applies: BaF3, Affinity Phenotypic Cellular Source Knowledge https://pubmed.ncbi.nlm.nih.gov/23594111/.
For test [21], the target named is T4, Cytoplasmic tyrosine-protein kinase BMX (Homo sapiens). In words: Affinity Phenotypic Cellular interaction: (Antiproliferative activity assay (prostate cancer cell line, DU-145)) EUB0000045b BMX. The test is classed as functional, cell-based. On the set-up: recommended concentration 1 uM. The settings on record: Affinity Phenotypic Cellular Source Knowledge https://pubmed.ncbi.nlm.nih.gov/23594111/.

Test [22] has the same target. The test can be described thus: Affinity Phenotypic Cellular interaction: (Antiproliferative activity against Tel-kinase transformed Cys496Ser Ba/F3 cell line, TEL-BMX) EUB0000045b BMX. Type of test: functional, cell-based. Also on record: recommended concentration 1 uM. The settings on record: BaF3, Affinity Phenotypic Cellular Source Knowledge https://pubmed.ncbi.nlm.nih.gov/23594111/.

For test [23] the target is unchanged. In words: Affinity Phenotypic Cellular interaction: (Antiproliferative activity assay (prostate cancer cell line, PC-3)) EUB0000045b BMX. The settings on record: Affinity Phenotypic Cellular Source Knowledge https://pubmed.ncbi.nlm.nih.gov/23594111/. The test is classed as functional, cell-based. On the set-up: recommended concentration 1 uM.
Test [24] deals with Tyrosine-protein kinase BTK (Homo sapiens) (UniProt Q06187). The following applies: PC-3, Affinity Phenotypic Cellular Source Knowledge https://pubmed.ncbi.nlm.nih.gov/23594111/.
Test [25] deals with T4, Cytoplasmic tyrosine-protein kinase BMX (Homo sapiens). In words: Affinity Phenotypic Cellular interaction: (Antiproliferative activity assay (prostate cancer cell line, VCAP)) EUB0000045b BMX. Type of test: functional, cell-based. Also on record: recommended concentration 1 uM. The following applies: Affinity Phenotypic Cellular Source Knowledge https://pubmed.ncbi.nlm.nih.gov/23594111/.

For test [26] the target is unchanged. The test can be described thus: Affinity Phenotypic Cellular interaction: (Antiproliferative activity against Tel-kinase transformed Ba/F3 cell line, TEL-BMX) EUB0000045b BMX. The test is classed as functional, cell-based. On the set-up: recommended concentration 1 uM. The settings on record: BaF3, Affinity Phenotypic Cellular Source Knowledge https://pubmed.ncbi.nlm.nih.gov/23594111/.

Test [27] deals with Tyrosine-protein kinase BTK (Homo sapiens) (UniProt Q06187). The settings on record: CWR22R, Affinity Phenotypic Cellular Source Knowledge https://pubmed.ncbi.nlm.nih.gov/23594111/.
For test [28], the target named is T4, Cytoplasmic tyrosine-protein kinase BMX (Homo sapiens). The test can be described thus: Affinity Phenotypic Cellular interaction: (Antiproliferative activity against Tel-kinase wt Ba/F3 cell line) EUB0000045b BMX. The test is classed as functional, cell-based. Also on record: recommended concentration 1 uM. The following applies: BaF3, Affinity Phenotypic Cellular Source Knowledge https://pubmed.ncbi.nlm.nih.gov/23594111/.

The target of test [29] is Serine/threonine-protein kinase mTOR (Homo sapiens) (UniProt P42345). The test can be described thus: Affinity Phenotypic Cellular interaction: (Anti-phosphorylation of AKT(S473) and S6K(T389) in insulin-like growth factor-I (IGF-I)-induced Rat1, the PIK3CA mutant MDA361, and PTEN-null U87MG cells) EUB0000607a MTOR. The following applies: Affinity Phenotypic Cellular Source Knowledge https://pubmed.ncbi.nlm.nih.gov/20068177/. Type of test: functional, cell-based. On the set-up: recommended concentration 1 uM.

Test [30] concerns the target Cyclin-dependent kinase 8 (Homo sapiens, UniProt P49336). In words: Affinity Phenotypic Cellular interaction: (Inhibition of pSTAT S727 in NK-92 cells) EUB0000163b CDK8. The test is classed as functional, cell-based. Also on record: mode of action Negative control for BI-1347, recommended concentration 100 nM.

SMILES strings stand for the structures. A value given as a limit tells only on which side of the number the result lay.

T3 sequence (Q16644 whole entry): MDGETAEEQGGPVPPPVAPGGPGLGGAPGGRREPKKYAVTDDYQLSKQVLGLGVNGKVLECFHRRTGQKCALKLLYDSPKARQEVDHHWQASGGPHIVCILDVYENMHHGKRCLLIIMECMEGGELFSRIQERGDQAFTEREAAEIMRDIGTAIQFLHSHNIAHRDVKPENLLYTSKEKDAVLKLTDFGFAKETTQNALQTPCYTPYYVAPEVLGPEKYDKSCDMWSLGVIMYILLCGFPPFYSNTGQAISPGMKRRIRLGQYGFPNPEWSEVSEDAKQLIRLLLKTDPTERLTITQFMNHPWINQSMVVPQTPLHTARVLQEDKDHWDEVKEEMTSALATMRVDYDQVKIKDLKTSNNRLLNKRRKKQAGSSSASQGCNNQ
Protein arginine N-methyltransferase 3, sequence (O60678 whole entry): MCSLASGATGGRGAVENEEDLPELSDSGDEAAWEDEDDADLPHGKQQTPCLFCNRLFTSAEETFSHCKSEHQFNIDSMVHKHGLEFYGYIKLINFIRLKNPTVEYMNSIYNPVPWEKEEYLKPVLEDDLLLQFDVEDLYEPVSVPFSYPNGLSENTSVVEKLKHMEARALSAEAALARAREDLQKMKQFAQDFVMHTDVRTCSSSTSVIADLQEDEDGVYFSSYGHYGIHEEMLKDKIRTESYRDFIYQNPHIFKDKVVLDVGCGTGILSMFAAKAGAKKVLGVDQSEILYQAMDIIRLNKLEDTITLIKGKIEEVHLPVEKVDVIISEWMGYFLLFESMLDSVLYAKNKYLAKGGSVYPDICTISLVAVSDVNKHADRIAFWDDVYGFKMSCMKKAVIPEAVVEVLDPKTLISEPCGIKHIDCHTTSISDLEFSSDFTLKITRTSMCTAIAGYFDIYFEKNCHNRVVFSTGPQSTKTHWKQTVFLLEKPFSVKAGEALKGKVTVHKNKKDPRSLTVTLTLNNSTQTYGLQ
Cyclin-dependent kinase 8, sequence (P49336 whole entry): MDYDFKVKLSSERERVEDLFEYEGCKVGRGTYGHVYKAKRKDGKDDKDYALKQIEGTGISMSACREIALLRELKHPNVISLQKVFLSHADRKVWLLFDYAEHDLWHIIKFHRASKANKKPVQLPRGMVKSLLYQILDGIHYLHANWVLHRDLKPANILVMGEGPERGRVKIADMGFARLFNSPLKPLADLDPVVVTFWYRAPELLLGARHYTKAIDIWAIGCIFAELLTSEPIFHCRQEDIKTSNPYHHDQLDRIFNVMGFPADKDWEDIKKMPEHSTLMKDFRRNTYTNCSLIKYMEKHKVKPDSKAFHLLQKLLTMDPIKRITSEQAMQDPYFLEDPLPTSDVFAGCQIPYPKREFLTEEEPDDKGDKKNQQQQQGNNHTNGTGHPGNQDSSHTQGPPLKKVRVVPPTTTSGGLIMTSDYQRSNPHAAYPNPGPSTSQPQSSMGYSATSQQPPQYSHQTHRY
Protein arginine N-methyltransferase 7, sequence (Q9NVM4 whole entry): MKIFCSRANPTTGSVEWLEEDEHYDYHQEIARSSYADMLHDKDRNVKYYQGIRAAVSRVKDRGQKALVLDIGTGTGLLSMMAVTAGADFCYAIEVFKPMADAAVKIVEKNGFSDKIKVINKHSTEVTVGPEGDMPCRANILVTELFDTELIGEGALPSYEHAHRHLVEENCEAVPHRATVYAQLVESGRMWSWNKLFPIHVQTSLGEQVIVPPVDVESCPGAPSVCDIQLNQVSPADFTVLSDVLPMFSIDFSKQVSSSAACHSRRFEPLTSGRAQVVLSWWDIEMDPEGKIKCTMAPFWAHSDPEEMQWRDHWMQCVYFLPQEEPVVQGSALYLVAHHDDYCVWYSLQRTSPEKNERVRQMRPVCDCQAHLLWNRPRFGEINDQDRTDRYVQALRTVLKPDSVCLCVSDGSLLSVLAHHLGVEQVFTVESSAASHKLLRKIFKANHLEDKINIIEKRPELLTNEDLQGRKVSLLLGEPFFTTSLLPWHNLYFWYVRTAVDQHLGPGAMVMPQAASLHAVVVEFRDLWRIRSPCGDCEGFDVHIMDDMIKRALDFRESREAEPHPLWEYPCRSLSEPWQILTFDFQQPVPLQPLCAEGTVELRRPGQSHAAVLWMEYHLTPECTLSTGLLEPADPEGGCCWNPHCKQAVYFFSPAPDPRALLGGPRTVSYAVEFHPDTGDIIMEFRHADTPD

As usually defined, the IC50 is the concentration needed to halve the response being measured. `CC1=C(C)C(=O)C(C(C)(C)CC(=O)N(CCCCSC[C@H]2O[C@@H](n3cnc4c(N)ncnc43)[C@@H]3OC(C)(C)O[C@@H]32)Cc2cccc(-c3ccc(Cl)cc3)c2)=C(C)C1=O`: the IC50 in test [1] is more than 40 µM.
Turning to `Cc1ccc(-c2ccc3c(ccc4sc5c(c43)NC[C@@H](C)NC5=O)n2)cn1`, the IC50 in test [2] is 2.09 µM; in test [3], 2.09 µM; in test [4] it was 0.13 µM; in [5], 2.78 µM; in [6] it was 2.78 µM; in [7] it was 2.09 µM. In addition, the IC50 in [8] came to 1.26 µM; in test [9], 1.26 µM; in test [10] it was 1.26 µM; in [11] it was 2.78 µM.
In the case of `CC(C)Oc1ccc(-c2c[nH]cc2CN(C)CCO)cc1`, the IC50 in test [12], in test [13] and in test [14] was more than 50 µM in each case.
On to `C=CC(=O)Nc1cc(-n2c(=O)ccc3cnc4ccc(-c5ccc(NS(C)(=O)=O)cc5)cc4c32)ccc1C`, for which the GIC50 in [15] is 2460 nM; in [16], more than 10 µM; in test [17] it was more than 10 µM; in test [18] it was 2540 nM; in [19], 4.38 µM; in test [20], more than 10 µM. Besides, the GIC50 in [21] was 4.38 µM; in [22], more than 50 µM; in [23], 5.37 µM; in test [24], 5.37 µM; in test [25], 2460 nM; in [26], 25 nM. Besides, the GIC50 came out at 2540 nM in test [27] and 10 µM in [28].
For `CNC(=O)Nc1ccc(-c2nc(N3CC4CCC(C3)O4)c3cnn(C4CCC5(CC4)OCCO5)c3n2)cc1`, the ED50 in test [29] came to 0.2 µM.
Take `CN(C)C(=O)Cn1cc(-c2ccc(-c3nnc4ccccn34)cc2)cn1`: the concentration for half-maximal inhibition (IC50) in test [30] was more than 10 µM.

Source of the values: ChEMBL document CHEMBL5444388, “Affinity Phenotypic Cellular Literature for EUbOPEN Chemogenomic Library” (2024).
